In brackets after ≈: the same amount, converted by molar mass.
Tests used:
[1] = tested on: Streptococcus pyogenes Tel^R, Mac^R; assay: MIC against streptococci clinical isolates (Table 3); format: cell-based; conditions: Streptococcus pyogenes
[2] = tested on: Streptococcus pneumoniae Pen^R, Tel^1/^R, Mac^R; assay: as above; format: cell-based; conditions: Streptococcus pneumoniae, S. pneumoniae Pen^R, 12 strains, constitutive ermB
S. aureus 70S ribosomes = assay: Saturation (direct) binding of radiolabeled drug to S. aureus wild-type ribosomes, spin-column
Method: Ribosomes were prepared from E. coli, strain MRE 600, S. aureus strain ATCC 29212, or S. aureus strain N315 by standard protocols (Spedding™, G. 1990. Isolation and analysis of ribosomes from prokaryotes, eukaryotes, and organelles, p. 1-29. In G. Spedding (ed.), Ribosomes and protein synthesis, a practical approach. Oxford University Press, Oxford, United Kingdom; Adams, P. D., P. V. Afonine, G. Bunkoczi, V. B. Chen, I. W. Davis, N. Echols, J. J. Headd, L. W. Hung, G. J. Kapral, R. W. Grosse-Kunstleve, A. J. McCoy, N. W. Moriarty, R. Oeffner, R. J. Read, D. C. Richardson, J. S. Richardson, T. C. Terwilliger, and P. H. Zwart. 2010. PHENIX: a comprehensive Python-based system for macromolecular structure solution. Acta Crystallogr. D. Biol. Crystallogr. 66:213-221).
Competition binding studies. […]
Direct antibiotic binding experiments were done by incubating ribosomes at a 100 nM concentration with varying concentrations of radiolabeled drug in a total volume of 160 μL in buffer A (20 mM Tris-HCl [pH 7.5], 10 mM MgCl2, 150 mM NH4Cl, 6 mM 2-mercaptoethanol) at 37° C. for 15 min, then at 20° C. for 10 min. […] Radioactivity was measured in a scintillation counter and used to calculate the amount of the radiolabeled drug bound to ribosomes.

E. coli ribosome = assay: Competition binding with [14C]erythromycin, E. coli ribosome
Method: Competition binding studies. Binding of erythromycin to E. coli and S. aureus ribosomes and competition experiments were done by size-exclusion chromatography using Bio-Gel P30 spin columns as described in Xiong, L., Y. Korkhin, and A. S. Mankin. 2005. Binding site of the bridged macrolides in the Escherichia coli ribosome. Antimicrob. Agents Chemother. 49:281-288.
For competition binding experiments, ribosomes (100 nM) were preincubated with 100 nM [^14C]erythromycin (48.8 mCi/mmol; PerkinElmer) in 160 μL of buffer A at 37° C. for 15 min, then at 20° C. for 10 min. Competing antibiotics were added at varying concentrations, and the binding mixture was incubated at 20° C. for 100 min. The reactions were loaded onto the spin columns and the amount of ribosome-associated radioactivity was measured as described above. Binding data were analyzed using Prism software (GraphPad). Cell free transcription-translation assays.

[3] = tested on: S. aureus ribosomes (23S rRNA); assay: RNA footprinting (ribosome chemical probing), wild-type S. aureus ribosomes; format: binding; conditions: 100 μM antibiotic
Method: Ribosome chemical probing. rRNA probing was done following standard protocols (Merryman, C., and H. F. Noller. 1998. Footprinting and modification-interference analysis of binding sites on RNA, p. 237-253. In C. W. J. Smith (ed.), RNA:Protein Interactions, A Practical Approach. Oxford University Press, Oxford), with minor modifications. Briefly, 200 nM ribosomes were incubated with 100 μM antibiotic in 50 μL of buffer B (80 mM HEPES-KOH [pH 7.8], 20 mM MgCl2, 100 mM NH4Cl, 1.5 mM dithiothreitol) for 10 min at 37° C., followed by 10 min at 20° C. Modifying reagents (dimethyl sulfate [DMS], kethoxal, or 1-cyclohexyl-3-(2-morpholinoethyl)carbodiimide metho p-toluene sulfonate [CMCT]) were added and the modification reaction was carried out for 10 min at 37° C. After quenching the reaction and ethanol precipitation, rRNA was extracted and the distribution of modified nucleotides was assessed by primer extension.
Interactions of CEM-101 with wild-type E. coli and S. aureus ribosomes in solution. […] 1987. Chloramphenicol, erythromycin, carbomycin and vernamycin B protect overlapping sites in the peptidyl transferase region of 23S ribosomal RNA. Biochimie 69:879-884). Also included in this study was a C3-cladinose cousin of CEM-101, CEM-103, which lacks the C2-linked fluorine atom.

CC[C@H]1OC(=O)[C@@](C)(F)C(=O)[C@H](C)[C@@H](O[C@@H]2O[C@H](C)C[C@H](N(C)C)[C@H]2O)[C@](C)(OC)C[C@@H](C)C(=O)[C@H](C)[C@H]2N(CCCCn3cc(-c4cccc(N)c4)nn3)C(=O)O[C@]12C [CEM-101]
MIC50 [1]: 0.125 µg/mL (≈ 0.148 µM)
MIC90 ([1]; S. pyogenes Tel^R, Mac^R, 9 strains (8 ermB, 1 ermA, constitutive), read-out: MIC90): 0.25 µg/mL (≈ 0.296 µM)
MIC50 ([2]; read-out: MIC50): 0.5 µg/mL (≈ 0.592 µM)
MIC90 ([2]; read-out: MIC90): 0.5 µg/mL (≈ 0.592 µM)
Kd (S. aureus 70S ribosomes): 50 ± 13 nM
Kd (E. coli ribosome; E. coli ribosome, resulting from competition IC50): 62 ± 3 nM
IC50 (E. coli ribosome; competition with 100 nM [14C]erythromycin, 100 nM E. coli ribosomes, read-out: IC50 of displacement of erythromycin): 155 ± 8 nM
Protection of A752 from DMS modification ([3]; S. aureus ribosomes): strongly protects
Protection of A2058 and A2059 in domain V of 23S rRNA from modification with DMS ([3]; S. aureus wild-type ribosomes): protect

From patent US9815863B2, “Hydrogen bond forming fluoro ketolides for treating diseases” (priority 2010, dated 2017)
